Source: US7595401B2, “Therapeutic compounds and their use in cancer” (Myriad Pharmaceuticals, Inc., priority 2006, dated 2009)

Molecular target: purified human Hsp90
Assay: Binding Assay: fluorescence polarization with BODIPY-labeled geldanamycin
Conditions: BODIPY-GM 10 nM, Hsp90 30 nM
Summary of the method: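 Fluorescence polarization competition with BODIPY-geldanamycin (10 nM final) and human Hsp90 (30 nM final) in HEPES-KOH pH 7.3 buffer with molybdate, NP-40, DTT; 2% DMSO, overnight at room temperature. Read 485/530 nm; percent inhibition from mP normalized to DMSO controls, fluorescent-compound points excluded.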

Row | IC50 [µM] | % Inhibition at 5 μM Compound Concentration [%] | Compound
1 | > 25 |  | COc1ccc(OC)c(Sc2nc3c(N)ncnc3n2CCc2ccccc2O)c1 [Example 231, 2-(2-{6-Amino-8-[(2,5-dimethoxyphenyl)thio]-9H-purin-9-yl}ethyl)phenol]
2 | 0.5 |  | Nc1ncnc2c1nc(Sc1cc3c(cc1Br)OCCO3)n2CCc1ccccc1Cl [Example 233, 8-[(7-Bromo-2,3-dihydro-1,4-benzodioxin-6-yl)thio]-9-[2-(2-chlorophenyl)ethyl]-9H-purin-6-amine]
3 |  | 0 | Nc1ncn(CCc2ccccc2Cl)c2nc(Sc3cc4c(cc3Br)OCCO4)nc1-2 [Example 234, 8-[(7-Bromo-2,3-dihydro-1,4-benzodioxin-6-yl)thio]-3-[2-(2-chlorophenyl)ethyl]-3H-purin-6-amine]
4 | > 8 |  | COc1ccc(OC)c(Sc2nc3c(N)ncnc3n2C2Cc3ccccc3C2O)c1 (stereo not drawn) [Example 235, 2-{6-Amino-8-[(2,5-dimethoxyphenyl)thio]-9H-purin-9-yl}indan-1-ol]
5 |  | 0 | COc1ccc(OC)c(Sc2nc3c(N)ncn(C4Cc5ccccc5C4O)c-3n2)c1 (stereo not drawn) [Example 236, 2-{6-Amino-8-[(2,5-dimethoxyphenyl)thio]-3H-purin-3-yl}indan-1-ol]
6 | > 25 |  | COc1cc(Sc2nc3c(N)nc(F)nc3n2CCc2ccccc2Cl)cc(OC)c1OC [Example 237, 9-[2-(2-Chlorophenyl)ethyl]-2-fluoro-8-[(3,4,5-trimethoxyphenyl)thio]-9H-purin-6-amine]
7 | > 25 |  | COc1cc(Sc2nc3c(N)nc(F)nc3n2CCc2c(Cl)cccc2Cl)c(Cl)c(OC)c1OC [Example 239, 8-[(2-Chloro-3,4,5-trimethoxyphenyl)thio]-9-[2-(2,6-dichlorophenyl)ethyl]-2-fluoro-9H-purin-6-amine]
8 |  | 0 | COc1ccc(Sc2nc3c(N)ncn(CCc4ccccc4)c-3n2)cc1Cl [Example 241, 8-[(3-Chloro-4-methoxyphenyl)thio]-3-(2-phenylethyl)-3H-purin-6-amine]
9 | 3 |  | COc1ccc(CCn2c(Sc3cc(OC)ccc3OC)nc3c(N)ncnc32)cc1 [Example 247, 8-[(2,5-Dimethoxyphenyl)thio]-9-[2-(4-methoxyphenyl)ethyl]-9H-purin-6-amine]
10 | > 5 |  | COc1ccc(OC)c(Sc2nc3c(N)ncnc3n2CCc2ccc(Cl)cc2)c1 [Example 248, 9-[2-(4-Chlorophenyl)ethyl]-8-[(2,5-dimethoxyphenyl)thio]-9H-purin-6-amine]
11 | 0.1 |  | Nc1ncnc2c1nc(Sc1cc3c(cc1Br)OCO3)n2CCc1ccc(F)cc1 [Example 249, 8-[(6-Bromo-1,3-benzodioxol-5-yl)thio]-9-[2-(4-fluorophenyl)ethyl]-9H-purin-6-amine]
12 | 0.9 |  | COc1ccc(CCn2c(Sc3cc4c(cc3Br)OCO4)nc3c(N)ncnc32)cc1 [Example 250, 8-[(6-Bromo-1,3-benzodioxol-5-yl)thio]-9-[2-(4-methoxyphenyl)ethyl]-9H-purin-6-amine]
13 | 0.075 |  | COc1ccc(OC)c(Sc2nc3c(N)ncnc3n2CCc2c(Cl)cccc2Cl)c1 [Example 251, 9-[2-(2,6-Dichlorophenyl)ethyl]-8-[(2,5-dimethoxyphenyl)thio]-9H-purin-6-amine]
14 | > 25 |  | Nc1ncnc2c1nc(Sc1cccc(OC(F)F)c1)n2CCc1ccccc1 [Example 252, 8-{[3-(Difluoromethoxy)phenyl]thio}-9-(2-phenylethyl)-9H-purin-6-amine]
15 | > 8 |  | Nc1ncnc2c1nc(Sc1cccc(OC(F)F)c1)n2CCc1c(Cl)cccc1Cl [Example 253, 9-[2-(2,6-Dichlorophenyl)ethyl]-8-{[3-(difluoromethoxy)phenyl]thio}-9H-purin-6-amine]
16 | > 8 |  | Nc1ncnc2c1nc(Sc1cccc(OC(F)F)c1)n2CCc1c(F)cccc1Cl [Example 254, 9-[2-(2-Chloro-6-fluorophenyl)ethyl]-8-{[3-(difluoromethoxy)phenyl]thio}-9H-purin-6-amine]
17 | 0.25 |  | COc1cc(Sc2nc3c(N)ncnc3n2CCc2c(Cl)cccc2Cl)c(OC)cc1Cl [Example 255, 8-[(4-Chloro-2,5-dimethoxyphenyl)thio]-9-[2-(2,6-dichlorophenyl)ethyl]-9H-purin-6-amine]
18 | 0.47 |  | COc1cc(Sc2nc3c(N)ncnc3n2CCc2c(F)cccc2Cl)c(OC)cc1Cl [Example 256, 8-[(4-Chloro-2,5-dimethoxyphenyl)thio]-9-[2-(2-chloro-6-fluorophenyl)ethyl]-9H-purin-6-amine]
19 | > 25 |  | COc1cc(Sc2nc3c(N)ncnc3n2CCc2ccccc2)c(OC)cc1Cl [Example 257, 8-[(4-Chloro-2,5-dimethoxyphenyl)thio]-9-(2-phenylethyl)-9H-purin-6-amine]

Row | IC50 [µM] | % Inhibition at 5 μM Compound Concentration [%] | Compound
20 | > 25 |  | Nc1ncnc2c1nc(Sc1cccc(OC(F)F)c1)n2CCc1ccccc1Cl [Example 258, 9-[2-(2-Chlorophenyl)ethyl]-8-{[3-(difluoromethoxy)phenyl]thio}-9H-purin-6-amine]
21 | 12 |  | Nc1ncnc2c1nc(Sc1cc(Cl)c(Cl)cc1Cl)n2CCc1ccccc1 [Example 259, 9-(2-Phenylethyl)-8-[(2,4,5-trichlorophenyl)thio]-9H-purin-6-amine]
22 | 1.5 |  | COc1cc(Sc2nc3c(N)ncnc3n2CCc2ccccc2Cl)c(OC)cc1Cl [Example 260, 8-[(4-Chloro-2,5-dimethoxyphenyl)thio]-9-[2-(2-chlorophenyl)ethyl]-9H-purin-6-amine]
23 | > 25 |  | COc1cc(I)c(Sc2nc3c(N)ncnc3n2CCc2ccccc2Cl)cc1OC [Example 261, 9-[2-(2-Chlorophenyl)ethyl]-8-[(2-iodo-4,5-dimethoxyphenyl)thio]-9H-purin-6-amine]
24 | > 25 |  | Nc1ncnc2c1nc(Sc1cc(Cl)c(Cl)cc1Cl)n2CCc1ccccc1Cl [Example 262, 9-[2-(2-Chlorophenyl)ethyl]-8-[(2,4,5-trichlorophenyl)thio]-9H-purin-6-amine]
25 |  | 20 | Nc1ncn(Cc2ccccc2)c2nc(Sc3cc4c(cc3Br)OCO4)nc1-2 [Example 265, 3-Benzyl-8-[(6-bromo-1,3-benzodioxol-5-yl)thio]-3H-purin-6-amine]
26 | 12 |  | COc1ccc(OC)c(Sc2nc3c(N)ncnc3n2Cc2ccc(F)cc2)c1 [Example 266, 8-[(2,5-Dimethoxyphenyl)thio]-9-(4-fluorobenzyl)-9H-purin-6-amine]
27 | > 25 |  | Nc1ncnc2c1nc(Sc1ccc(NC=O)c(O)c1)n2CCc1ccccc1 [Example 267, N-(4-{[6-Amino-9-(2-phenylethyl)-9H-purin-8-yl]thio}-2-hydroxyphenyl)formamide]
28 |  | 7.0 | Nc1ncn(CCc2ccccc2)c2nc(Sc3ccc(NC=O)c(O)c3)nc1-2 [Example 268, N-(4-{[6-Amino-3-(2-phenylethyl)-3H-purin-8-yl]thio}-2-hydroxyphenyl)formamide]
29 | 5.5 |  | Nc1ncnc2c1nc(Sc1cc3c(cc1Br)OCO3)n2CCn1cnc2ccccc2c1=O [Example 269, 3-(2-{6-Amino-8-[(6-bromo-1,3-benzodioxol-5-yl)thio]-9H-purin-9-yl}ethyl)quinazolin-4(3 H)-one]
30 |  | 7.0 | Nc1ncn(CCn2cnc3ccccc3c2=O)c2nc(Sc3cc4c(cc3Br)OCO4)nc1-2 [Example 270, 3-(2-{6-Amino-8-[(6-bromo-1,3-benzodioxol-5-yl)thio]-3H-purin-3-yl}ethyl)quinazolin-4(3 H)-one]
31 | > 25 |  | COc1ccc(OC)c(Sc2nc3c(N)ncnc3n2CCn2cnc3ccccc3c2=O)c1 [Example 271, 3-(2-{6-Amino-8-[(2,5-dimethoxyphenyl)thio]-9H-purin-9-yl}ethyl)quinazolin-4(3 H)-one]
32 |  | 16 | COc1ccc(OC)c(Sc2nc3c(N)ncn(CCn4cnc5ccccc5c4=O)c-3n2)c1 [Example 272, 3-(2-{6-Amino-8-[(2,5-dimethoxyphenyl)thio]-3H-purin-3-yl}ethyl)quinazolin-4(3 H)-one]
33 | 1.3 |  | CC(C)(C)NS(=O)(=O)c1ccc(CCn2c(Sc3cc4c(cc3Br)OCO4)nc3c(N)ncnc32)cc1 [Example 273, 4-(2-{6-Amino-8-[(6-bromo-1,3-benzodioxol-5-yl)thio]-9H-purin-9-yl}ethyl)-N-(tert-butyl)benzenesulfonamide]
34 |  | 0.0 | CC(C)(C)NS(=O)(=O)c1ccc(CCn2cnc(N)c3nc(Sc4cc5c(cc4Br)OCO5)nc2-3)cc1 [Example 274, 4-(2-{6-Amino-8-[(6-bromo-1,3-benzodioxol-5-yl)thio]-3H-purin-3-yl}ethyl) N-(tert-butyl)benzenesulfonamide]
35 | > 3 |  | COc1ccc(OC)c(Sc2nc3c(N)ncnc3n2CCc2ccc(S(=O)(=O)NC(C)(C)C)cc2)c1 [Example 275, 4-(2-{6-Amino-8-[(2,5-dimethoxyphenyl)thio]-9H-purin-9-yl}ethyl)-N-(tert-butyl)benzenesulfonamide]
36 |  | 0.0 | COc1ccc(OC)c(Sc2nc3c(N)ncn(CCc4ccc(S(=O)(=O)NC(C)(C)C)cc4)c-3n2)c1 [Example 276, 4-(2-{6-Amino-8-[(2,5-dimethoxyphenyl)thio]-3H-purin-3-yl}ethyl)-N-(tert-butyl)benzenesulfonamide]
37 | > 8 |  | CCCCNC(=O)Nc1ccc(CCn2c(Sc3cc(OC)ccc3OC)nc3c(N)ncnc32)cc1 [Example 277, N-[4-(2-{6-Amino-8-[(2,5-dimethoxyphenyl)thio]-9H-purin-9-yl}ethyl)phenyl]-N′-butylurea]

Row | Compound | IC50 [µM] | % Inhibition at 5 μM Compound Concentration [%]
38 | Nc1ncnc2c1nc(Sc1cc3c(cc1Br)OCO3)n2CCC1(F)C(F)(F)C(F)(F)C(F)(F)C(F)(F)C1(F)F [Example 243, 8-[(6-Bromo-1,3-benzodioxol-5-yl)thio]-9-[2-(undecafluorocyclohexyl)ethyl]-9H-purin-6-amine] | > 1 | 
39 | COc1ccc(OC)c(Sc2nc3c(N)ncnc3n2CCC2(F)C(F)(F)C(F)(F)C(F)(F)C(F)(F)C2(F)F)c1 [Example 245, 8-[(2,5-Dimethoxyphenyl)thio]-9-[2-(undecafluorocyclohexyl)ethyl]-9H-purin-6-amine] |  | 1
